In PubChem BioAssay (NCI):
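96-well plates; 48 h exposure; 5 concentrations. Endpoints by linear interpolation between flanking doses. Not reached: highest tested concentration assigned. Here, GI50 denotes the concentration required for 50% inhibition of growth. TGI is the concentration that stops growth completely.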

test system: NCI-H23 lung; assay: inhibition of tumour cell growth, NCI panel, 48 h

| SMILES | TGI [µM] | GI50 [nM] |
| --- | --- | --- |
| CN1CCN(Cc2cc3c(nn2)-c2ccccc2C3=O)CC1 | > 100 | – |
| COc1cccc2c1OC(c1cccc3ccccc13)C([N+](=O)[O-])=C2 (stereo not given) | 4.29 | – |
| CN(C)Cc1cc(C(=O)/C=C/c2ccc([N+](=O)[O-])cc2)cc(CN(C)C)c1O | 47.5 | – |
| CC(C(=O)COCc1ccccc1)P1(=O)OC(C)(C)CN1C(C)(C)C (stereo not given) | > 100 | – |
| O=C(NN1C(=O)CS(=O)(=O)C1c1ccc(C(F)(F)F)cc1)c1ccncc1 (stereo not given) | > 100 | – |
| Cn1c2ccccc2c2c(=S)c3ccccc3ccc21 | > 100 | – |
| CCOc1c(OC)cc(-c2nc3n(n2)C(=O)C(CC)S3)cc1OC (stereo not given) | > 10 | – |
| CC1OC(O[C@H]2C3C=CO[C@@H](OC4OC(CO)C(O)C(O)C4O)C3[C@@]3(COC(=O)/C=C/c4ccccc4)O[C@@H]23)C(O)C(O)C1O (stereo not given in full) | > 100 | – |
| O=C1C(=Nc2ccc(Nc3ccccc3)cc2)Oc2ccccc21 | 3.93 | – |
| COc1ccc(CC(N)=O)cc1OC | > 1250 | – |
| CCOC(=O)CNC(=O)NC12CC3CC(CC(C3)C1)C2 | > 515 | – |
| COc1cc2c(cc1OCCCCCN1CCN(c3ncnc4ccccc34)CC1)N=CC1CCCN1C2=O (stereo not given) | 0.196 | 34.2 |
| O=C(NCCCl)O/N=C/c1cccnc1 | > 100 | – |
| C/C1=C\[C@H](C)C[C@H](C)OC(=O)[C@H](C)NC(=O)[C@@H](Cc2ccc(O)c(Br)c2)N(C)C(=O)[C@H](C)NC(=O)[C@@H](C)C1 | > 25 | – |
| CC(C)C1=CC23CCC4C(C)(C(=O)O)CCCC4(C)C2CC1C1C(=O)N(CCCCCCN2C(=O)C4C5CC6C7(C)CCCC(C)(C(=O)O)C7CCC6(C=C5C(C)C)C4C2=O)C(=O)C13 (stereo not given) | 14.9 | – |
| COC(=O)c1ccccc1CC1Cc2cccc(C)c2C1=O (stereo not given) | > 100 | – |

test system: OVCAR-4 ovarian; assay: inhibition of tumour cell growth, NCI panel, 48 h

| SMILES | TGI [µM] | GI50 [nM] |
| --- | --- | --- |
| C=CC1(C)CC(=O)C2(O)C(C)(O1)C(OC(C)=O)C(O)C1C(C)(C)CCC(O)C12C (stereo not given) | > 122 | – |
| Cc1cc(N(C)C)c2ccccc2[n+]1CCCCCCCCCC[n+]1c(C)cc(N(C)C)c2ccccc21 | 22.2 | – |
| CN1Cc2c(nc(-c3ccccc3)c[n+]2[O-])N(C)C1 | > 100 | – |
| C=C(CN(C)C)C(=O)c1ccc(C(=O)C(=C)CN(C)C)cc1 | > 100 | – |
| COc1cc(Nc2ccc3c(c2)CCC3)nc(OC)n1 | > 100 | – |
| CNc1[nH]c(=S)nc2sc3c(c12)CCCC3 | > 75 | – |
| N#Cc1sc2c(c1OC(=O)c1ccc(C(F)(F)F)cc1)c(=O)n(-c1ccccc1)c(=S)n2-c1ccccc1 | > 100 | – |
| Cc1c2c(c(C)n1-c1ccccc1)C(=O)N(CCN1CCN(c3cccc(C(F)(F)F)c3)CC1)C2=O | > 100 | – |
| O[C@H]1[C@H](O)[C@@H](O)CN2CC[C@H](O)[C@H]12 | > 100 | – |
| COc1cc(O)c2c(=O)c(OC)c(-c3ccc(OC)c(O)c3)oc2c1 | > 100 | – |
| Clc1sc(Cl)c2c1[C@@H](Cl)C[C@@H]2Br | > 100 | – |
| O=C(OCC(Cl)(Cl)Cl)N1CC[C@H](C2CCCCC2)C1 | 31.2 | – |
| Clc1ccc(C=NC23CC4CC(CC(C4)C2)C3)c(Cl)c1 | > 10 | – |
| C=C(C)CNCCN | > 100 | – |
| Cc1ccnc(NC(=S)Nc2ccc([N+](=O)[O-])cc2)c1 | > 100 | – |
| O=C(CN1C(=O)CC(c2ccccc2)(c2ccccc2)C1=O)N1CCN(CCO)CC1 | > 100 | – |
| COc1ccc2oc(=N)c(C(=O)Nc3ccccc3)cc2c1 | > 100 | – |
| O=C1c2cccc3cccc(c23)C(=O)N1CCCNCCCCNCCCNCCCN1C(=O)c2cccc3cccc(c23)C1=O | 1.76 | – |
| C=C(C)[C@H]1C2=CC(C(=O)OC)=C(C[C@H](C(=C)C)[C@@H](O)[C@@H](O)C3=C[C@H]1OC3=O)O2 | > 100 | – |
| O=c1onc2n1-c1cc(Cl)ccc1C(=S)N1CSCC21 (stereo not given) | > 100 | – |
| COc1cc(C2c3cc4c(cc3[C@@H](Nc3ccccc3)C3COC(=O)[C@H]23)OCO4)cc(OC)c1O (stereo not given in full) | 34.6 | – |
| OC(C#CCN1CCCC1)(c1ccccc1)c1ccccc1Cl (stereo not given) | 80.7 | – |

| SMILES | TGI [µM] | GI50 [nM] |
| --- | --- | --- |
| CSc1nc2c(c(N(C)C)n1)C(O)n1c(nc3ccccc31)S2 (stereo not given) | 24.5 | – |
| O=C1NC(O)CCN1C1OC(CO)C(O)C1O (stereo not given) | > 250 | – |
| COc1ccc(-c2nc3ccccc3c(=S)n2OC(C)=O)cc1 | > 25 | – |
| C=C1C(=O)[C@@]23CC[C@@H]4[C@@]5(C)CCC[C@@]4(OC5=O)[C@@]2(C)CC[C@@H]1C3 | 5.28 | – |
| Cn1ncc2c(NCc3ccccc3)ncnc21 | > 100 | – |
| CCCCOCCOC1=C(Cl)C(=O)c2c(O)ccc(O)c2C1=O | 1.99 | – |
| N#CC(c1ccccc1)N(CCOCCOCCN(C(=O)c1ccccc1)C(C#N)c1ccccc1)C(=O)c1ccccc1 (stereo not given) | > 100 | – |
| COc1cccc2c1OC(c1cccc3ccccc13)C([N+](=O)[O-])=C2 (stereo not given) | 13 | – |
| CC(C(=O)COCc1ccccc1)P1(=O)OC(C)(C)CN1C(C)(C)C (stereo not given) | > 100 | – |
| O=C(NN1C(=O)CS(=O)(=O)C1c1ccc(C(F)(F)F)cc1)c1ccncc1 (stereo not given) | > 100 | – |
| Cn1c2ccccc2c2c(=S)c3ccccc3ccc21 | > 100 | – |
| CCOc1c(OC)cc(-c2nc3n(n2)C(=O)C(CC)S3)cc1OC (stereo not given) | > 10 | – |
| CC1OC(O[C@H]2C3C=CO[C@@H](OC4OC(CO)C(O)C(O)C4O)C3[C@@]3(COC(=O)/C=C/c4ccccc4)O[C@@H]23)C(O)C(O)C1O (stereo not given in full) | > 100 | – |
| O=C1C(=Nc2ccc(Nc3ccccc3)cc2)Oc2ccccc21 | 6.8 | – |
| COc1ccc(CC(N)=O)cc1OC | > 1250 | – |
| CCOC(=O)CNC(=O)NC12CC3CC(CC(C3)C1)C2 | > 550 | – |
| COc1cc2c(cc1OCCCCCN1CCN(c3ncnc4ccccc34)CC1)N=CC1CCCN1C2=O (stereo not given) | 2.28 | 49.8 |
| O=C(NCCCl)O/N=C/c1cccnc1 | > 100 | – |
| C/C1=C\[C@H](C)C[C@H](C)OC(=O)[C@H](C)NC(=O)[C@@H](Cc2ccc(O)c(Br)c2)N(C)C(=O)[C@H](C)NC(=O)[C@@H](C)C1 | 1.92 | – |
| CC(C)C1=CC23CCC4C(C)(C(=O)O)CCCC4(C)C2CC1C1C(=O)N(CCCCCCN2C(=O)C4C5CC6C7(C)CCCC(C)(C(=O)O)C7CCC6(C=C5C(C)C)C4C2=O)C(=O)C13 (stereo not given) | 34.3 | – |
| COC(=O)c1ccccc1CC1Cc2cccc(C)c2C1=O (stereo not given) | > 100 | – |

test system: OVCAR-5 ovarian; assay: inhibition of tumour cell growth, NCI panel, 48 h

| SMILES | TGI [µM] |
| --- | --- |
| C=CC1(C)CC(=O)C2(O)C(C)(O1)C(OC(C)=O)C(O)C1C(C)(C)CCC(O)C12C (stereo not given) | 45.5 |
| Cc1cc(N(C)C)c2ccccc2[n+]1CCCCCCCCCC[n+]1c(C)cc(N(C)C)c2ccccc21 | 15.6 |
| CN1Cc2c(nc(-c3ccccc3)c[n+]2[O-])N(C)C1 | > 100 |
| C=C(CN(C)C)C(=O)c1ccc(C(=O)C(=C)CN(C)C)cc1 | > 100 |
| COc1cc(Nc2ccc3c(c2)CCC3)nc(OC)n1 | > 100 |
| CNc1[nH]c(=S)nc2sc3c(c12)CCCC3 | > 75 |
| N#Cc1sc2c(c1OC(=O)c1ccc(C(F)(F)F)cc1)c(=O)n(-c1ccccc1)c(=S)n2-c1ccccc1 | > 100 |
| Cc1c2c(c(C)n1-c1ccccc1)C(=O)N(CCN1CCN(c3cccc(C(F)(F)F)c3)CC1)C2=O | > 100 |
| O[C@H]1[C@H](O)[C@@H](O)CN2CC[C@H](O)[C@H]12 | > 100 |
| COc1cc(O)c2c(=O)c(OC)c(-c3ccc(OC)c(O)c3)oc2c1 | > 100 |
| Clc1sc(Cl)c2c1[C@@H](Cl)C[C@@H]2Br | > 100 |
| O=C(OCC(Cl)(Cl)Cl)N1CC[C@H](C2CCCCC2)C1 | 34.4 |
| Clc1ccc(C=NC23CC4CC(CC(C4)C2)C3)c(Cl)c1 | > 10 |
| c1ccc(C(C(=Nc2ccc(Cc3ccc(N=C(C(c4ccccc4)c4ccccc4)N4CC4)cc3)cc2)N2CC2)c2ccccc2)cc1 | 24.5 |
| C=C(C)CNCCN | > 100 |
| O=C(CN1C(=O)CC(c2ccccc2)(c2ccccc2)C1=O)N1CCN(CCO)CC1 | > 100 |
| COc1ccc2oc(=N)c(C(=O)Nc3ccccc3)cc2c1 | > 100 |
| O=C1c2cccc3cccc(c23)C(=O)N1CCCNCCCCNCCCNCCCN1C(=O)c2cccc3cccc(c23)C1=O | 2.76 |
| C=C(C)[C@H]1C2=CC(C(=O)OC)=C(C[C@H](C(=C)C)[C@@H](O)[C@@H](O)C3=C[C@H]1OC3=O)O2 | > 100 |
| O=c1onc2n1-c1cc(Cl)ccc1C(=S)N1CSCC21 (stereo not given) | > 100 |

| SMILES | TGI [µM] |
| --- | --- |
| COc1cc(C2c3cc4c(cc3[C@@H](Nc3ccccc3)C3COC(=O)[C@H]23)OCO4)cc(OC)c1O (stereo not given in full) | > 66.8 |
| OC(C#CCN1CCCC1)(c1ccccc1)c1ccccc1Cl (stereo not given) | > 100 |
| CSc1nc2c(c(N(C)C)n1)C(O)n1c(nc3ccccc31)S2 (stereo not given) | > 100 |
| O=C1NC(O)CCN1C1OC(CO)C(O)C1O (stereo not given) | > 145 |
| COc1ccc(-c2nc3ccccc3c(=S)n2OC(C)=O)cc1 | > 25 |
| C=C1C(=O)[C@@]23CC[C@@H]4[C@@]5(C)CCC[C@@]4(OC5=O)[C@@]2(C)CC[C@@H]1C3 | 6.27 |
| Cn1ncc2c(NCc3ccccc3)ncnc21 | > 100 |
| CCCCOCCOC1=C(Cl)C(=O)c2c(O)ccc(O)c2C1=O | 2.66 |
| N#CC(c1ccccc1)N(CCOCCOCCN(C(=O)c1ccccc1)C(C#N)c1ccccc1)C(=O)c1ccccc1 (stereo not given) | > 100 |
| CN1CCN(Cc2cc3c(nn2)-c2ccccc2C3=O)CC1 | > 100 |
| COc1cccc2c1OC(c1cccc3ccccc13)C([N+](=O)[O-])=C2 (stereo not given) | 3.62 |
| CN(C)Cc1cc(C(=O)/C=C/c2ccc([N+](=O)[O-])cc2)cc(CN(C)C)c1O | 34.5 |
| CC(C(=O)COCc1ccccc1)P1(=O)OC(C)(C)CN1C(C)(C)C (stereo not given) | > 100 |
| O=C(NN1C(=O)CS(=O)(=O)C1c1ccc(C(F)(F)F)cc1)c1ccncc1 (stereo not given) | > 100 |
| Cn1c2ccccc2c2c(=S)c3ccccc3ccc21 | > 100 |
| CCOc1c(OC)cc(-c2nc3n(n2)C(=O)C(CC)S3)cc1OC (stereo not given) | > 10 |
| CC1OC(O[C@H]2C3C=CO[C@@H](OC4OC(CO)C(O)C(O)C4O)C3[C@@]3(COC(=O)/C=C/c4ccccc4)O[C@@H]23)C(O)C(O)C1O (stereo not given in full) | > 100 |
| O=C1C(=Nc2ccc(Nc3ccccc3)cc2)Oc2ccccc21 | 10.1 |
| COc1ccc(CC(N)=O)cc1OC | > 1250 |
